These results are taken from ChEMBL document CHEMBL3044860, “13-Deoxyitol A, a new insecticidal isoryanodane diterpene from the seeds of Itoa orientalis” (2009).

Type in all cases: functional
Experiment [1] relates to Plutella xylostella. Kind of experiment: Antifeedant activity against third-instar larval stage of Plutella xylostella (diamondback moth) in cabbage mustard leaves.
In experiment [2] the test system is Spodoptera litura. The experiment in a line: Antifeedant activity against third-instar larval stage of Spodoptera litura in cabbage mustard leaves.
The test system of experiment [3] is Spodoptera litura. Kind of experiment: Contact toxicity against third-instar larval stage of Spodoptera litura applied topically measured per insect.
Experiment [4] deals with Nilaparvata lugens. Kind of experiment: Contact toxicity against macropterous female Nilaparvata lugens (brown planthopper) applied topically measured per insect.
Experiment [5] relates to Sogatella furcifera. Kind of experiment: Antifeedant activity against fourth-instar nymph stage of Sogatella furcifera in tillering to booting period rice seedlings.
Experiment [6] has as its system Nilaparvata lugens. Kind of experiment: Antifeedant activity against fourth-instar nymph stage of Nilaparvata lugens (brown planthopper) in tillering to booting period rice seedlings.
The test system of experiment [7] is Plutella xylostella. Kind of experiment: Contact toxicity against third-instar larval stage of Plutella xylostella (diamondback moth) applied topically measured per insect.
Experiment [8] relates to Sogatella furcifera. Kind of experiment: Contact toxicity against macropterous female Sogatella furcifera applied topically measured per insect.

Molecules are shown by their SMILES.

`CC(C)[C@@H]1[C@H](O)[C@H]2C(C)(CO)[C@@]3(O)CC[C@@H](C)[C@H]3[C@H]3OC[C@]1(C)[C@]32O` (stereo not given in full) [13-DEOXYITOL A]: the AFC50 in the experiment on Plutella xylostella [1] is 29.3 µg/mL; with Spodoptera litura [2] it was 50.1 µg/mL; in the experiment with Sogatella furcifera [5], 23.5 µg/mL; in the experiment with Nilaparvata lugens [6] it was 38.9 µg/mL. The LD50 in the experiment on Spodoptera litura [3] is 0.22 µg; in the experiment with Nilaparvata lugens [4] it was greater than 2 µg; in the experiment on Plutella xylostella [7], 0.22 µg; with Sogatella furcifera [8], greater than 2 µg.
For `C/C=C(\C)C(=O)O[C@H]1C[C@@H](OC(C)=O)[C@@]2(C(=O)OC)CO[C@H]3[C@@H](O)[C@@](C)([C@]45O[C@@]4(C)[C@@H]4C[C@H]5O[C@@H]5OC=C[C@@]54O)[C@H]4[C@]1(CO[C@]4(O)C(=O)OC)[C@@H]32` [AZADIRACHTIN A], the AFC50 with Plutella xylostella [1] is 9.3 µg/mL; with Spodoptera litura [2], 9.8 µg/mL; in the experiment with Sogatella furcifera [5], 7 µg/mL; in the experiment on Nilaparvata lugens [6] it was 7.5 µg/mL.
For the compound `CC(C)[C@@]1(O)[C@H](O)[C@@H]2[C@@]3(O)[C@@H]4O[C@@](O)(C[C@@]2(C)[C@@]2(O)CC[C@@H](C)[C@@H]42)[C@]31C` [ITOL A], the AFC50 in the experiment with Plutella xylostella [1] worked out at 22.5 µg/mL; in the experiment on Spodoptera litura [2], 47.5 µg/mL; with Sogatella furcifera [5], 29.3 µg/mL; in the experiment with Nilaparvata lugens [6] it was 34.8 µg/mL. The LD50 is 0.22 µg in the experiment on Spodoptera litura [3], greater than 2 µg with Nilaparvata lugens [4], 0.22 µg with Plutella xylostella [7] and greater than 2 µg with Sogatella furcifera [8].
